Results on one substance are retold here after patent publication US9157062B2, “Compositions and methods for promoting the generation of PDX1+ pancreatic cells” (President and Fellows of Harvard College, priority 2008, dated 2015).

In one assay the test system is HUES8-derived population. Nature of the assay: Illumina microarray of markers expressed in non-pancreatic tissues. The format is cell-based, human. Conditions: 300 nM ILV, 4 days. As to the method:
cRNA samples were prepared with an Illumina TotalPrep RNA Amplification Kit (Ambion). Data was acquired with an Illumina beadstation 500 (Illumina) and analyzed with beadstudio (Illumina).
To further characterize the cells induced by ILV, beyond Pdx1^+ expression, multiple pancreatic lineage markers were examined by immunocytochemistry and qRT-PCR. More than 96% of the Pdx1^+ cells following ILV treatment show significant expression of other pancreatic progenitor markers, including FOXA2 and HNF6 (FIG. 4a). After ILV treatment, Pdx1, HNF6, Ptfla, Sox9, FOXA2 mRNAs level increase (FIG. 4b).

Assay [1] concerns HUES8-derived population (Pdx1+ cells). Nature of the assay: Pdx1 antibody staining of treated HUES8-derived population. It is filed as cell-based, human. Particulars: HUES8-derived population, 4 days; 300 nM ILV and/or 50 ng/ml FGF10. How it is done:
To generate a starting population, HUES cells were cultured on MEF feeder cells until 80-90% confluent, then treated with 25 ng/ml Wnt3a (R&D systems)+100 ng/ml Activin A (R&D systems) in advanced RPMI (A-RPMI, Invitrogen) supplemented with 1×L-Glu and 1×PS for 1 day, and then 100 ng/ml Activin A in A-RPMI supplemented with 1×L-Glu, 1×PS and 0.2% FBS (Invitrogen). Two days later, the media was changed to 50 ng/ml FGF10 (R&D systems)+0.25 μM KAAD-CYC (Calbiochem) in A-RPMI supplemented with 1×L-Glu, 1×PS and 2% FBS and maintained for additional 2 days. Cells were then transferred to 50 ng/ml FGF10+0.25 μM KAAD-CYC+2 μM RA (Sigma) in DMEM supplemented with 1×L-Glu, 1×PS, 1×B27 (Invitrogen) and cultured for an additional 4 days. ILV was obtained from Axxora, KAAD-CYC, TPB, PMA, BISI, Gö 6983, U0126 and PD98059 were obtained from Calbiochem and RA were obtained from Sigma.
Cells were fixed with 10% formalin solution (Sigma) for 20 min at room temperature. Immunostaining was carried out with standard protocols. The following primary antibodies were used: goat anti-Pdx1 (1:500; R&D system); rabbit anti-FOXA2 (1:500; Upstate); rabbit anti-HNF6 (1:200; Santa Cruz Biotech); guinea pig anti-insulin (1:1000; Dako); rabbit anti-c-peptide (1:500; Linco); rabbit anti-amylase (1:200, Sigma); goat anti-HNF1β (1:100, Santa Cruz Biotech); and biotinylated DBA (1:400; Vector Lab). Alexa-488-, Alexa-555, and Alexa-647-conjugated donkey antibodies against mouse, rabbit, guinea pig and goat, and Pacific Blue conjugate-streptavidin (Invitrogen) were used at 1:300 dilution.
To determine whether PKC signaling is being activated in HUES-derived cells, HUES8-derived definitive endoderm population was treated with two PKC agonists, TPB ((2S,5S)-(E,E)-8-(5-(4-(trifluoromethyl)phenyl)-2,4-pentadienoylamino)benzolactam) and PMA (phorbol-12-myristate-13-acetate), in the absence of ILV. […] Furthermore, HUES8-derived population was treated with two PKC antagonists, BISI (Bisindolylmaleimide I) and Gö 6983, in the presence of ILV.
Experiments were performed to monitor downstream signaling by PKC. Since ERK signaling has been reported to be regulated by PKC (Ueda et al., 1996), the activity of ERK signaling was examined with Western blotting to detect the phosphorylation of ERK1/2 at Thr-202/Tyr-204.

For (−)-Indolactam V [ILV], the “markers expressed in non-pancreatic tissues or organs (Sox7, Cdx2, Ces2, FABP2, AFP, albumin, BARX1, Troponin T, Sox2)” value with HUES8-derived population was “either decrease or do not significantly change”. For the same substance, the “percentage of cells stained by Pdx1 antibody” value in assay [1] is 26.9±2.8%.
